Measured values reported in publication PMC4349585 (Journal of medicinal chemistry, 2015).

Test system: PC-3 cells
Assay: Cofilin phosphorylation Western blot in PC-3 cells stimulated by HGF
Assay type: cell-based
Details: 50 nM

SMILES: Cc1c[nH]c2ncnc(-c3ccc(NC(=O)N(CCO)c4ccccc4)cc3)c12 [Compound 18b, 1-(2-Hydroxyethyl)-3-(4-(5-methyl-7H-pyrrolo[2,3-d]pyrimidin-4-yl)phenyl)-1-phenylurea]
- inhibition of cofilin phosphorylation in PC-3 cells (Western blot): significant inhibition
